“And” between values parts separate entries of the source, which are not always exact repeats. Equal entries are not always repeated.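 Interpolation was linear, between the two tested concentrations surrounding the appropriate level; five concentrations were tested over 48 hours in 96-well plates. At the GI50, growth is halved. TGI denotes the concentration required for complete inhibition of growth.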
Columns and labels:
Experiment in all cases: growth of human tumour cells (NCI), 48 h
SNB-78 CNS = tested on: SNB-78 CNS
NCI-H522 lung = tested on: NCI-H522 lung
DMS 273 small cell lung = tested on: DMS 273 small cell lung
HL-60(TB) leukemia = tested on: HL-60(TB) leukemia
HCT-116 colon = tested on: HCT-116 colon
KM12 colon = tested on: KM12 colon
HCT-15 colon = tested on: HCT-15 colon
CAKI-1 renal = tested on: CAKI-1 renal
MDA-MB-435 = tested on: MDA-MB-435
T-47D breast = tested on: T-47D breast

## CCCCCCCCCCCCCCCCCCOCC1(COP(=O)([O-])OCC[N+](C)(C)C)CCCO1 (stereo not drawn)
SNB-78 CNS
  TGI: 29.5 µM
NCI-H522 lung
  TGI: 6.23 µM
DMS 273 small cell lung
  TGI: 3.13 µM
HL-60(TB) leukemia
  TGI: 5.24 µM
HCT-116 colon
  TGI: 22 µM
KM12 colon
  TGI: 3.33 µM

## Cn1c(=O)c2[nH]cnc2n(CC(=O)O)c1=O
SNB-78 CNS
  TGI: > 100 µM
NCI-H522 lung
  TGI: > 100 µM
HCT-15 colon
  TGI: > 100 µM
DMS 273 small cell lung
  TGI: > 100 µM
CAKI-1 renal
  TGI: > 100 µM
HCT-116 colon
  TGI: > 100 µM
KM12 colon
  TGI: > 100 µM

## CCCCCC/C=C\CCCCCCCCCc1c(O)c(OC)cc(O)c1CN(C)C
NCI-H522 lung
  TGI: 3.25 µM
HCT-15 colon
  TGI: 10.8 µM
MDA-MB-435
  TGI: 20 µM
HL-60(TB) leukemia
  TGI: 5.37 µM
CAKI-1 renal
  TGI: 26.9 µM
T-47D breast
  TGI: 4.2 µM
HCT-116 colon
  TGI: 22 µM
KM12 colon
  TGI: 11.7 µM

## NC(=O)C12CCC1C1CCCCC12N1CCOCC1 (stereo not drawn)
SNB-78 CNS
  TGI: > 100 µM
NCI-H522 lung
  TGI: > 100 µM
HCT-15 colon
  TGI: > 100 µM
HL-60(TB) leukemia
  TGI: > 100 µM
CAKI-1 renal
  TGI: > 100 µM
HCT-116 colon
  TGI: > 100 µM
KM12 colon
  TGI: > 100 µM

## C[n+]1ccc2[nH]c3ccccc3c2c1
SNB-78 CNS
  TGI: > 100 µM
NCI-H522 lung
  TGI: > 100 µM
HCT-15 colon
  TGI: > 100 µM
DMS 273 small cell lung
  TGI: > 100 µM
HL-60(TB) leukemia
  TGI: > 100 µM
CAKI-1 renal
  TGI: > 100 µM
HCT-116 colon
  TGI: > 100 µM
KM12 colon
  TGI: > 100 µM

## COC(=O)NN=C1C(C)(C)C(=NNC(=O)OC)C1(C)C
SNB-78 CNS
  TGI: > 100 µM
NCI-H522 lung
  TGI: > 100 µM
HCT-15 colon
  TGI: > 100 µM
DMS 273 small cell lung
  TGI: > 100 µM
HL-60(TB) leukemia
  TGI: > 100 µM
CAKI-1 renal
  TGI: > 100 µM
HCT-116 colon
  TGI: > 62.5 µM
KM12 colon
  TGI: > 100 µM

## CO[C@@]12[C@H](COC(N)=O)C3=C(C(=O)C(C)=C(N)C3=O)N1C[C@@H]1N[C@@H]12
NCI-H522 lung
  GI50: 1.1 µM and 1.18 µM
  TGI: 3.85 µM and 4.17 µM and 8.07 µM
HCT-15 colon
  GI50: 1.92 µM and 1.67 µM
  TGI: 10.4 µM and 16.4 µM and 43.4 µM
DMS 273 small cell lung
  TGI: 3.6 µM
MDA-MB-435
  GI50: 2.14 µM and 2.91 µM and 1.53 µM
  TGI: 6.92 µM and 12.7 µM and 15.3 µM
HL-60(TB) leukemia
  GI50: 0.126 µM
CAKI-1 renal
  TGI: 6.18 µM and 25 µM and 3.07 µM
T-47D breast
  GI50: 2.25 µM and 1.41 µM
HCT-116 colon
  GI50: 1.26 µM and 1.15 µM
  TGI: 6.06 µM and 4.21 µM and 8.46 µM
KM12 colon
  GI50: 1.57 µM and 3.5 µM

## O=C(Nn1c2c(sc1=NC1CC1)C(=O)c1ccccc1C2=O)c1cc2ccc1CCc1ccc(cc1)CC2
NCI-H522 lung
  GI50: 1.6 µM
  TGI: 4.69 µM
HCT-15 colon
  GI50: 1.51 µM
  TGI: 3.24 µM
MDA-MB-435
  GI50: 1.76 µM
  TGI: 3.23 µM
HL-60(TB) leukemia
  GI50: 2.18 µM
  TGI: 6.26 µM
CAKI-1 renal
  GI50: 2.48 µM
  TGI: 14.9 µM
T-47D breast
  GI50: 2.49 µM
  TGI: 14.4 µM
HCT-116 colon
  GI50: 1.94 µM
  TGI: 6.45 µM
KM12 colon
  GI50: 3.12 µM
  TGI: 13.7 µM

## COc1ccc(Cn2cc3c(c2-c2ccccc2)CCc2cncnc2-3)cc1
NCI-H522 lung
  GI50: 5.05 µM
  TGI: 21 µM
HCT-15 colon
  GI50: 4.3 µM
  TGI: 16.5 µM
MDA-MB-435
  GI50: 2.49 µM
  TGI: 11.8 µM
HL-60(TB) leukemia
  GI50: 2.04 µM
  TGI: 5.7 µM
CAKI-1 renal
  GI50: 3.55 µM
  TGI: 17.5 µM
T-47D breast
  GI50: 3.47 µM
  TGI: 27 µM
HCT-116 colon
  GI50: 3.65 µM
  TGI: 14.9 µM
KM12 colon
  GI50: 3.57 µM
  TGI: 13.5 µM

## C=CC1=C(C)C(Cc2[nH]c(/C=c3\[nH]/c(=C/C4=NC(=O)C(C)/C4=C\C)c(C)c3CCC(=O)O)c(CCC(=O)OC)c2C)NC1=O (stereo not drawn)
NCI-H522 lung
  GI50: 17.7 µM
  TGI: 32 µM
HCT-15 colon
  GI50: 21.6 µM
  TGI: 53.9 µM
MDA-MB-435
  GI50: 23.9 µM
  TGI: 62 µM
HL-60(TB) leukemia
  GI50: 39.8 µM
  TGI: > 100 µM
CAKI-1 renal
  GI50: 46.3 µM
  TGI: > 100 µM
T-47D breast
  GI50: 36.8 µM
  TGI: > 100 µM
HCT-116 colon
  GI50: 19.8 µM
  TGI: 36.9 µM
KM12 colon
  GI50: 21 µM
  TGI: 40.1 µM

## COc1cc(/C=N/O)nc(-c2ccccn2)c1
NCI-H522 lung
  GI50: 0.565 µM
  TGI: > 100 µM
HCT-15 colon
  GI50: 0.197 µM
  TGI: > 100 µM
MDA-MB-435
  GI50: 0.492 µM
  TGI: > 100 µM
HL-60(TB) leukemia
  GI50: 0.271 µM
  TGI: 2.81 µM
CAKI-1 renal
  TGI: 8.97 µM
T-47D breast
  GI50: 0.465 µM
  TGI: > 100 µM
HCT-116 colon
  GI50: 0.351 µM
  TGI: > 100 µM
KM12 colon
  GI50: 0.385 µM
  TGI: > 100 µM

## Clc1ccc2c(NCCN3CCN(c4ccnc(N5CCCC5)n4)CC3)ccnc2c1
NCI-H522 lung
  GI50: 3.27 µM
  TGI: 11.1 µM
HCT-15 colon
  GI50: 2.1 µM
  TGI: 7.57 µM
MDA-MB-435
  GI50: 1.96 µM
  TGI: 4.54 µM
HL-60(TB) leukemia
  GI50: 2.37 µM
  TGI: 6.25 µM
CAKI-1 renal
  GI50: 2.69 µM
  TGI: 10.3 µM
T-47D breast
  GI50: 2.01 µM
  TGI: 5.59 µM
HCT-116 colon
  GI50: 2.51 µM
  TGI: 10.4 µM
KM12 colon
  GI50: 4.02 µM
  TGI: 17.4 µM

## O=C(Cc1nc2ccccc2s1)C(=O)Nc1ccc(Cl)cc1Cl
SNB-78 CNS
  TGI: > 100 µM
HCT-15 colon
  TGI: > 100 µM
DMS 273 small cell lung
  TGI: > 100 µM
HCT-116 colon
  TGI: > 100 µM
KM12 colon
  TGI: > 100 µM

## CCC[CH2][Sn]1([CH2]CCC)[O]CC([CH2][Sn]([c]2ccccc2)([c]2ccccc2)[c]2ccccc2)[O]1 (stereo not drawn)
SNB-78 CNS
  GI50: 10.2 µM
  TGI: 26.4 µM
NCI-H522 lung
  GI50: 1.4 µM
  TGI: 3.37 µM
HCT-15 colon
  GI50: 13.2 µM
  TGI: 26.4 µM
HL-60(TB) leukemia
  GI50: 2.47 µM
  TGI: 8.38 µM
KM12 colon
  GI50: 12.2 µM
  TGI: 25.3 µM

## Cc1[nH]ccc2cc3nc4ccccc4c3cc12
NCI-H522 lung
  GI50: 2.22 µM
  TGI: 9.72 µM
HCT-15 colon
  GI50: 1.84 µM
  TGI: 5.9 µM
MDA-MB-435
  GI50: 2.89 µM
  TGI: 12.7 µM
HL-60(TB) leukemia
  GI50: 3.48 µM
  TGI: 14.9 µM
CAKI-1 renal
  GI50: 2.38 µM
  TGI: 10.8 µM
T-47D breast
  GI50: 3.62 µM
  TGI: 18.9 µM
HCT-116 colon
  GI50: 0.667 µM
  TGI: 2.38 µM
KM12 colon
  GI50: 2.45 µM
  TGI: 11.8 µM

## CN(C)NC(=S)NC12CC3CC(CC(C3)C1)C2
SNB-78 CNS
  TGI: > 100 µM
NCI-H522 lung
  TGI: > 100 µM
HCT-15 colon
  TGI: > 100 µM
DMS 273 small cell lung
  TGI: > 100 µM
HL-60(TB) leukemia
  TGI: > 100 µM
CAKI-1 renal
  TGI: > 100 µM
HCT-116 colon
  TGI: > 100 µM
KM12 colon
  TGI: > 100 µM

## c1cc(-c2cnn3nc(N4CCOCC4)ccc23)nc(NC2CC2)n1
NCI-H522 lung
  GI50: 13.5 µM
  TGI: > 25 µM
HCT-15 colon
  GI50: 8.66 µM
  TGI: > 25 µM
MDA-MB-435
  GI50: 9.94 µM
  TGI: > 25 µM
HL-60(TB) leukemia
  GI50: 7.5 µM
  TGI: 18.9 µM
CAKI-1 renal
  GI50: 7.21 µM
  TGI: > 25 µM
T-47D breast
  GI50: 8.08 µM
  TGI: > 25 µM
HCT-116 colon
  GI50: 7.55 µM
  TGI: 24.6 µM
KM12 colon
  GI50: 8.13 µM
  TGI: > 25 µM

## CC(=O)[CH-]C(=O)c1ccccc1.CC(=O)[CH-]C(=O)c1ccccc1.CC12CC3(C)CC(C)(C1)CC([O-])(C2)C3.CC[O-].[Ti+4]
NCI-H522 lung
  GI50: 21.2 µM
  TGI: 44.6 µM
DMS 273 small cell lung
  GI50: 33.4 µM
  TGI: > 100 µM
HL-60(TB) leukemia
  GI50: 27.8 µM
  TGI: > 100 µM
CAKI-1 renal
  GI50: 42.9 µM
  TGI: > 100 µM
HCT-116 colon
  GI50: 18.8 µM
  TGI: 50.6 µM
KM12 colon
  GI50: 18.3 µM
  TGI: 35.2 µM

From PubChem BioAssay (NCI)
